The assay deals with GST-Bcl-2. In words: TR-FRET binding assay, Bcl-2. As to conditions: TR-FRET Ki values. An outline of the steps:
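Compounds serially diluted in DMSO from 50 μM (2× starting concentration, 10% DMSO), mixed with GST-tagged protein, F-Bak peptide probe and Tb-labeled antibody, incubated 3 h at room temperature.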
In general terms: TR-FRET usually uses a lanthanide donor and a delayed reading to cut background.
Regarding `CC1(C)CCC(CN2CCN(c3ccc(C(=O)NS(=O)(=O)c4ccc(NCCCN5CCCC5=O)c([N+](=O)[O-])c4)c(Oc4ccc5[nH]ccc5c4)c3)CC2)=C(c2ccc(Cl)cc2)C1` [EXAMPLE 374, 4-(4-{[2-(4-chlorophenyl)-4,4-dimethylcyclohex-1-en-1-yl]methyl}piperazin-1-yl)-2-(1H-indol-5-yloxy)-N-[(3-nitro-4-{[3-(2-oxopyrrolidin-1-yl)propyl]amino}phenyl)sulfonyl]benzamide], the “Binding selectivity ratio (Bcl-XL Ki/Bcl-2 Ki)” value (shortened to “Binding selectivity ratio”) was greater than 291.2.
With `CC1(C)CCC(CN2CCN(c3ccc(C(=O)NS(=O)(=O)c4ccc(NCC5CCOCC5)c(C#N)c4)c(Oc4ccc5[nH]ccc5c4)c3)CC2)=C(c2ccc(Cl)cc2)C1` [EXAMPLE 367, 4-(4-{[2-(4-chlorophenyl)-4,4-dimethylcyclohex-1-en-1-yl]methyl}piperazin-1-yl)-N-({3-cyano-4-[(tetrahydro-2H-pyran-4-ylmethyl)amino]phenyl}sulfonyl)-2-(1H-indol-5-yloxy)benzamide] the figure was greater than 143.2.
Take `CC1(C)CCC(c2ccc(Cl)cc2)=C(CN2CCN(c3ccc(C(=O)NS(=O)(=O)c4ccc(NCCCN5CCOCC5)c([N+](=O)[O-])c4)c(Oc4ccc5[nH]ccc5c4)c3)CC2)C1` [Example 50, 4-(4-{[2-(4-chlorophenyl)-5,5-dimethylcyclohex-1-en-1-yl]methyl}piperazin-1-yl)-2-(1H-indol-5-yloxy)-N-({4-[(3-morpholin-4-ylpropyl)amino]-3-nitrophenyl}sulfonyl)benzamide]: the “Binding selectivity ratio” value is on record as 191.2.
With `CC1(C)CCC(CN2CCN(c3ccc(C(=O)NS(=O)(=O)c4cnc(O[C@@H]5CCN(CC(F)F)C5)c(Cl)c4)c(Oc4cccc5[nH]ncc45)c3)CC2)=C(c2ccc(Cl)cc2)C1` [EXAMPLE 422, N-[(5-chloro-6-{[(3R)-1-(2,2-difluoroethyl)pyrrolidin-3-yl]oxy}pyridin-3-yl)sulfonyl]-4-(4-{[2-(4-chlorophenyl)-4,4-dimethylcyclohex-1-en-1-yl]methyl}piperazin-1-yl)-2-(1H-indazol-4-yloxy)benzamide] the figure was 4073; with `CC(C)n1cc(CN2CCN(c3ccc(C(=O)NS(=O)(=O)c4ccc(NCC5CCOCC5)c([N+](=O)[O-])c4)c(Oc4ccc5[nH]ccc5c4)c3)CC2)c(-c2ccc(Cl)cc2)cc1=O` [EXAMPLE 307, 4-(4-{[4-(4-chlorophenyl)-1-isopropyl-6-oxo-1,6-dihydropyridin-3-yl]methyl}piperazin-1-yl)-2-(1H-indol-5-yloxy)-N-({3-nitro-4-[(tetrahydro-2H-pyran-4-ylmethyl)amino]phenyl}sulfonyl)benzamide], greater than 177.1.
Take `CN1CC[C@H](Nc2ccc(S(=O)(=O)NC(=O)c3ccc(N4CCN(CC5=C(c6ccc(Cl)cc6)CC(C)(C)CC5)CC4)cc3Oc3ccc4[nH]ccc4c3)cc2[N+](=O)[O-])C1` [EXAMPLE 234, 4-(4-{[2-(4-chlorophenyl)-4,4-dimethylcyclohex-1-en-1-yl]methyl}piperazin-1-yl)-2-(1H-indol-5-yloxy)-N-[(4-{[(3S)-1-methylpyrrolidin-3-yl]amino}-3-nitrophenyl)sulfonyl]benzamide]: the “Binding selectivity ratio” value was 66.3.
With `CC1(C)CCC(CN2CCN(c3ccc(C(=O)NS(=O)(=O)c4ccc(NCCCN5CCOCC5)c(S(=O)(=O)C(F)(F)F)c4)c(Oc4ccc5[nH]ccc5c4)c3)CC2)=C(c2ccc(Cl)cc2)C1` [EXAMPLE 348, 4-(4-{[2-(4-chlorophenyl)-4,4-dimethylcyclohex-1-en-1-yl]methyl}piperazin-1-yl)-2-(1H-indol-5-yloxy)-N-({4-[(3-morpholin-4-ylpropyl)amino]-3-[(trifluoromethyl)sulfonyl]phenyl}sulfonyl)benzamide] the figure was 97.1; with `CC1(C)CCC(CN2CCN(c3ccc(C(=O)NS(=O)(=O)c4ccc(NCC5CCOCC5)c([N+](=O)[O-])c4)c(Oc4cccc5c4CCNC5)c3)CC2)=C(c2ccc(Cl)cc2)C1` [EXAMPLE 399, 4-(4-{[2-(4-chlorophenyl)-4,4-dimethylcyclohex-1-en-1-yl]methyl}piperazin-1-yl)-N-({3-nitro-4-[(tetrahydro-2H-pyran-4-ylmethyl)amino]phenyl}sulfonyl)-2-(1,2,3,4-tetrahydroisoquinolin-5-yloxy)benzamide], greater than 225764.520763495.
For the molecule `CC1(C)CCC(CN2CCN(c3ccc(C(=O)NS(=O)(=O)c4cc(F)c(NCC5CCOCC5)cc4Cl)c(Oc4ccc5[nH]ccc5c4)c3)CC2)=C(c2ccc(Cl)cc2)C1` [EXAMPLE 379, N-({2-chloro-5-fluoro-4-[(tetrahydro-2H-pyran-4-ylmethyl)amino]phenyl}sulfonyl)-4-(4-{[2-(4-chlorophenyl)-4,4-dimethylcyclohex-1-en-1-yl]methyl}piperazin-1-yl)-2-(1H-indol-5-yloxy)benzamide], the “Binding selectivity ratio” value is listed as greater than 2.6.
On to `O=C(NS(=O)(=O)c1ccc(NCC2CCOCC2)c([N+](=O)[O-])c1)c1ccc(N2CCN(CC3=C(c4ccc(Cl)cc4)CCC(N4CCCC4)C3)CC2)cc1Oc1ccc2[nH]ccc2c1` (stereo not shown) [EXAMPLE 272, 4-(4-{[2-(4-chlorophenyl)-5-pyrrolidin-1-ylcyclohex-1-en-1-yl]methyl}piperazin-1-yl)-2-(1H-indol-5-yloxy)-N-({3-nitro-4-[(tetrahydro-2H-pyran-4-ylmethyl)amino]phenyl}sulfonyl)benzamide], for which the “Binding selectivity ratio” value is recorded as greater than 58011.8.
Under `O=C(NS(=O)(=O)c1ccc(NCc2cccs2)c([N+](=O)[O-])c1)c1ccc(N2CCN(Cc3ccccc3-c3ccc(Cl)cc3)CC2)cc1Oc1ccccc1` [Example 162, 4-{4-[(4′-chloro-1,1′-biphenyl-2-yl)methyl]piperazin-1-yl}-N-({3-nitro-4-[(thien-2-ylmethyl)amino]phenyl}sulfonyl)-2-phenoxybenzamide] stands 123.8; under `CC(C1=C(c2ccc(Cl)cc2)CC(C)(C)CC1)N1CCN(c2ccc(C(=O)NS(=O)(=O)c3ccc(NC4CCN(C5CCOCC5)CC4)c([N+](=O)[O-])c3)c(Oc3ccc4[nH]ccc4c3)c2)CC1` (stereo not shown) [EXAMPLE 258, 4-(4-{1-[2-(4-chlorophenyl)-4,4-dimethylcyclohex-1-en-1-yl]ethyl}piperazin-1-yl)-2-(1H-indol-5-yloxy)-N-({3-nitro-4-[(1-tetrahydro-2H-pyran-4-ylpiperidin-4-yl)amino]phenyl}sulfonyl)benzamide], 86; under `CC1(C)CCC(CN2CCN(c3ccc(C(=O)NS(=O)(=O)c4ccc(S(C)(=O)=O)cc4)c(Oc4ccc5[nH]ccc5c4)c3)CC2)=C(c2ccc(Cl)cc2)C1` [EXAMPLE 382, 4-(4-{[2-(4-chlorophenyl)-4,4-dimethylcyclohex-1-en-1-yl]methyl}piperazin-1-yl)-2-(1H-indol-5-yloxy)-N-{[4-(methylsulfonyl)phenyl]sulfonyl}benzamide], greater than 573.9.
With `CC1(C)CCC(CN2CCN(c3ccc(C(=O)NS(=O)(=O)c4cnc(OCCC5CCCO5)c(Cl)c4)c(Oc4cccc5[nH]ncc45)c3)CC2)=C(c2ccc(Cl)cc2)C1` (stereo not shown) [EXAMPLE 461, 4-(4-{[2-(4-chlorophenyl)-4,4-dimethylcyclohex-1-en-1-yl]methyl}piperazin-1-yl)-N-{[5-chloro-6-(2-tetrahydrofuran-2-ylethoxy)pyridin-3-yl]sulfonyl}-2-(1H-indazol-4-yloxy)benzamide] the figure was 39.44.
With `CNc1ccc(S(=O)(=O)NC(=O)c2ccc(N3CCN(CC4=C(c5ccc(Cl)cc5)CC(C)(C)CC4)CC3)cc2Oc2cccc3[nH]ccc23)cc1[N+](=O)[O-]` [EXAMPLE 246, 4-(4-{[2-(4-chlorophenyl)-4,4-dimethylcyclohex-1-en-1-yl]methyl}piperazin-1-yl)-2-(1H-indol-4-yloxy)-N-{[4-(methylamino)-3-nitrophenyl]sulfonyl}benzamide] the figure was 490.9; with `CC1(C)CCC(CN2CCN(c3ccc(C(=O)NS(=O)(=O)c4ccc(C(=O)NCC5CCOCC5)cc4)c(Oc4ccc5[nH]ccc5c4)c3)CC2)=C(c2ccc(Cl)cc2)C1` [EXAMPLE 308, 4-(4-{[2-(4-chlorophenyl)-4,4-dimethylcyclohex-1-en-1-yl]methyl}piperazin-1-yl)-2-(1H-indol-5-yloxy)-N-[(4-{[(tetrahydro-2H-pyran-4-ylmethyl)amino]carbonyl}phenyl)sulfonyl]benzamide], greater than 11.5.
In the case of `CC1(C)CCC(CN2CCN(c3ccc(C(=O)NS(=O)(=O)c4ccc(NCC(F)(F)F)c([N+](=O)[O-])c4)c(Oc4cccc5[nH]ccc45)c3)CC2)=C(c2ccc(Cl)cc2)C1` [EXAMPLE 343, 4-(4-{[2-(4-chlorophenyl)-4,4-dimethylcyclohex-1-en-1-yl]methyl}piperazin-1-yl)-2-(1H-indol-4-yloxy)-N-({3-nitro-4-[(2,2,2-trifluoroethyl)amino]phenyl}sulfonyl)benzamide], the “Binding selectivity ratio” value is greater than 1145.9.
With `CC(C)(C)c1ccc(CN2CCN(c3ccc(C(=O)NS(=O)(=O)c4ccc(NCC5CCOCC5)c([N+](=O)[O-])c4)c(Oc4ccc5[nH]ccc5c4)c3)CC2)c(-c2ccc(Cl)cc2)c1` [EXAMPLE 341, 4-{4-[(5-tert-butyl-4′-chloro-1,1′-biphenyl-2-yl)methyl]piperazin-1-yl}-2-(1H-indol-5-yloxy)-N-({3-nitro-4-[(tetrahydro-2H-pyran-4-ylmethyl)amino]phenyl}sulfonyl)benzamide] the figure was greater than 50.8.
Under `CC1(C)CCC(CN2CCN(c3ccc(C(=O)NS(=O)(=O)c4cnc(OCC5CCOCC5)c(Br)c4)c(Oc4ccc5[nH]ccc5c4)c3)CC2)=C(c2ccc(Cl)cc2)C1` [EXAMPLE 329, N-{[5-bromo-6-(tetrahydro-2H-pyran-4-ylmethoxy)pyridin-3-yl]sulfonyl}-4-(4-{[2-(4-chlorophenyl)-4,4-dimethylcyclohex-1-en-1-yl]methyl}piperazin-1-yl)-2-(1H-indol-5-yloxy)benzamide] stands greater than 2319.5.
